# Test system: Human CTPS1 versus CTPS2
# Test: RapidFire/MS-based enzyme selectivity assay, human CTPS1 versus CTPS2
# Format: biochemical
# Details: calculated from RF/MS IC50 values for human CTPS1 and CTPS2
# Experimental: Human CTPS1 versus CTPS2 Selectivity Assessment by RapidFire/MS Analysis.
# The enzyme inhibitory activities against each target isoform of interest may be determined for the compounds of the invention using an optimised RapidFire high-throughput mass spectrometry (RF/MS) assay format. RF/MS assays for both human CTPS1 and CTPS2 may be performed in assay buffer consisting of 50 mM HEPES (Merck), 20 mM MgCl2, 5 mM KCl, 1 mM DTT, 0.01% Tween-20, pH to 8.0 accordingly. Human full-length active C-terminal FLAG-His-tag CTPS1 (UniProtKB-P17812, CTPS[1-591]-[…]) may be obtained from Proteros biostructures GmbH. Human full length active C-terminal FLAG-His-Avi tagged CTPS2 (UniProtKB-Q9NRF8, CTPS2 [1-586]-[…]) may be obtained from Harker Bio.
# Human CTPS (1 or 2) protein may be prepared in 1× assay buffer to the final working protein concentration required for the reaction. A 2 uL volume per well of 2×CTPS (1 or 2) protein may be mixed with 40 nL of compound using acoustic (ECHO) delivery and incubated for 10 minutes at 25° C. Each isoform enzymatic reaction may be subsequently initiated by addition of 2 uL per well of a 2× substrate mix in assay buffer. For hCTPS1: ATP (0.3 mM), UTP (0.2 mM), GTP (0.07 mM) and L-glutamine (0.1 mM). For hCTPS2: ATP (0.1 mM), UTP (0.04 mM), GTP (0.03 mM) and L-glutamine (0.1 mM). Each mixture may be incubated for an appropriate amount of time per isoform within the determined linear phase of the reaction at 25° C. A 60 uL volume of stop solution (1% formic acid with 0.5 uM ^13C9-^15N3-CTP in H20) may be added and the plate immediately heat-sealed and centrifuged for 10 minutes at 4,000 rpm. Following centrifugation, plates may be loaded onto the Agilent RapidFire microfluidic solid phase extraction system coupled to an API4000 triple quadrupole mass spectrometer (RF/MS) for analysis.
# In all cases, the enzyme converts UTP to CTP. Highly specific and sensitive multiple reaction monitoring (MRM) MS methods may be optimised for the detection of the enzymatic reaction product, CTP, and the stable isotope labelled product standard ^13C9-^15N3-CTP. Readout for data analysis may be calculated as the ratio between the peak area of the product CTP and the internal standard ^13C9-^15N3-CTP. For data reporting, the following equation may be used: […]
# For each screening plate, the means of the negative (DMSO) and positive control values were used for the calculation of the respective assay window (S/B) and Z′ values. The median of the respective control values was used for calculation of percent inhibition according to the following equation: […]
# Percentage inhibition was then plotted against compound concentration, and the 50% inhibitory concentration (IC50) was determined from the resultant concentration-response curve.
# Fold selectivity between CTPS1 and CTPS2 was subsequently calculated according to the following equation: […]
row,SMILES,Selectivity (fold selectivity between CTPS1 and CTPS2)
1,"CCOc1cncc(-c2ccc(NC(=O)C(CCOC)c3ccnc(NS(=O)(=O)C4CC4)n3)nc2)n1 (stereo not drawn) [P145, 2-(2-(cyclopropanesulfonamido)pyrimidin-4-yl)-N-(5-(6-ethoxypyrazin-2-yl)pyridin-2-yl)-4-methoxybutanamide]",+++ (>60 fold (+++))
2,CCOc1cncc(-c2ccc(NC(=O)C3(c4cncc(NS(=O)(=O)C5CC5)n4)CCOCC3)nc2)n1 [P197],+++ (>60 fold (+++))
3,"CCOc1cncc(-c2ccc(NC(=O)C(F)(CC)c3cncc(NS(=O)(=O)C4CC4)n3)nc2)n1 (single isomer, unassigned) [P206, 2-(6-(cyclopropanesulfonamido)pyrazin-2-yl)-N-(5-(6-ethoxypyrazin-2-yl)pyridin-2-yl)-2-fluorobutanamide]",+++ (>60 fold (+++))
4,"CCOc1cncc(-c2ccc(NC(=O)C(F)(CC)c3ccnc(NS(=O)(=O)C4CC4)n3)nc2)n1 (single isomer, unassigned) [P113, 2-(2-(Cyclopropanesulfonamido)pyrimidin-4-yl)-N-(5-(6-ethoxypyrazin-2-yl)pyridin-2-yl)-2-fluorobutanamide]",+ (2-30 fold (+))
5,"CCOc1cncc(-c2ccc(NC(=O)C3(c4ccnc(NS(=O)(=O)C5CC5)n4)CCCC3)nc2)n1 [P136, 1-(2-(cyclopropanesulfonamido)pyrimidin-4-yl)-N-(5-(6-ethoxypyrazin-2-yl)pyridin-2-yl)cyclopentane-1-carboxamide]",+++ (>60 fold (+++))
6,"CCOc1cncc(-c2ccc(NC(=O)C(F)(CC)c3cncc(NS(=O)(=O)C4CC4)n3)nc2)n1 (single isomer, unassigned) [P207, 2-(6-(cyclopropanesulfonamido)pyrazin-2-yl)-N-(5-(6-ethoxypyrazin-2-yl)pyridin-2-yl)-2-fluorobutanamide]",+ (2-30 fold (+))
7,"CCOc1cncc(-c2ccc(NC(=O)C3(c4ccnc(NS(=O)(=O)C5CC5)n4)CCOCC3)nc2)n1 [P115, 4-(2-(Cyclopropanesulfonamido)pyrimidin-4-yl)-N-(5-(6-ethoxypyrazin-2-yl)pyridin-2-yl)tetrahydro-2H-pyran-4-carboxamide]",+++ (>60 fold (+++))
8,"CCOc1cncc(-c2ccc(NC(=O)C(F)(CC)c3ccnc(NS(=O)(=O)C4CC4)n3)nc2)n1 (single isomer, unassigned) [P114, 2-(2-(Cyclopropanesulfonamido)pyrimidin-4-yl)-N-(5-(6-ethoxypyrazin-2-yl)pyridin-2-yl)-2-fluorobutanamide]",+++ (>60 fold (+++))
9,"CCOc1cncc(-c2ccc(NC(=O)C3(c4ccnc(NS(=O)(=O)C5CC5)n4)CCOCC3)c(F)c2)n1 [P143, 4-(2-(cyclopropanesulfonamido)pyrimidin-4-yl)-N-(4-(6-ethoxypyrazin-2-yl)2-fluorophenyl)tetrahydro-2H-pyran-4-carboxamide]",+++ (>60 fold (+++))
